Results on nine molecules are retold here after the supplement of paper PMC10627819.

Test [1] deals with S. aureus DSM 20231. Kind of test: Bliss interaction score (quartile over a dose matrix) (fitness difference); higher = more antagonism (negative = synergy). An outline of the steps:
(§1)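 OD595 was read at entry into stationary phase and expressed relative to the robust mean of the no-drug wells on the same plate, capped at 1. The resulting ratio is the fitness value. The Bliss score, observed fitness minus product-based expected fitness with single-drug fitness inferred from combinations, is summarised by quartiles over technical, biological and donor/recipient replicates.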

The test system of test [2] is S. aureus Newman. The test is described as above. An outline of the steps: as §1
The test system of a further test is B. subtilis 168. The test is described as above. In a few lines:
as §1

Another test deals with S. pneumoniae D39V. Described as above. In a few lines: as §1
The subject of test [3] is S. aureus DSM 20231. Kind of test: fitness (endpoint OD595 vs no drug) (fraction); higher = more growth. In a few lines: (§2)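 Volumes were 30 µl per well, or 55 µl for S. pneumoniae, in 384-well plates inoculated at OD595 0.01. Media were TSB, LB Lennox or CY at 37 °C, and OD595 was read every 30 min for 14 h with first-reading background subtraction. Fitness is the ratio of optical density at stationary-phase entry to the robust mean of no-drug controls. That ratio is capped at 1.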

For test [4], the system named is S. aureus Newman. Described as above. An outline of the steps: as §2
Setting [5] is: first compound 0.75 µg/mL, partner 0.625 µg/mL.
The mark [6] stands for this setting: first compound 0.75 µg/mL, partner 1.25 µg/mL.
[7] abbreviates: first compound 0.75 µg/mL, partner 2.5 µg/mL.
The mark [8] stands for this setting: first compound 1.5 µg/mL, partner 0.625 µg/mL.
The mark [9] stands for this setting: first compound 1.5 µg/mL, partner 1.25 µg/mL.
Where [10] appears, read: first compound 1.5 µg/mL, partner 2.5 µg/mL.
Where [11] appears, read: first compound 3 µg/mL, partner 0.625 µg/mL.
The mark [12] stands for this setting: first compound 3 µg/mL, partner 1.25 µg/mL.

Molecules are shown by their SMILES.
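For Bliss interaction score (quartile over a dose matrix) in this document: first quartile when negative (synergy) and third quartile when positive (antagonism).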

Consider `CC[C@H]1OC(=O)[C@H](C)[C@@H](O[C@H]2C[C@@](C)(OC)[C@@H](O)[C@H](C)O2)[C@H](C)[C@@H](O[C@@H]2O[C@H](C)C[C@H](N(C)C)[C@H]2O)[C@](C)(OC)C[C@@H](C)C(=O)[C@H](C)[C@@H](O)[C@]1(C)O` [Clarithromycin] + CO[C@@]12[C@H](COC(N)=O)C3=C(C(=O)C(C)=C(N)C3=O)N1C[C@@H]1N[C@@H]12 [MitomycinC], for which the Bliss interaction score was -0.0723 in the test on S. aureus DSM 20231 [1], 0.0537 in the test with S. aureus Newman [2], 0.036 with B. subtilis 168 and -0.0527 in the test with S. pneumoniae D39V.
In the case of `N[C@@H]1CONC1=O` [CycloserineD] + CCCCCCCCCC(=O)N[C@@H]1[C@H]([C@@H]([C@H](O[C@H]1OC2=C3C=C4C=C2OC5=C(C=C(C=C5)[C@H]([C@H]6C(=O)N[C@@H](C7=C(C(=CC(=C7)O)OC8[C@H]([C@H]([C@@H]([C@H](O8)CO)O)O)O)C9=C(C=CC(=C9)[C@H](C(=O)N6)NC(=O)[C@@H]4NC(=O)[C@@H]1C2=CC(=CC(=C2)OC2=C(C=CC(=C2)[C@H](C(=O)N[C@H](CC2=CC(=C(O3)C=C2)Cl)C(=O)N1)N)O)O)O)C(=O)O)O[C@H]1[C@@H]([C@H]([C@@H]([C@H](O1)CO)O)O)NC(=O)C)Cl)CO)O)O [Teicoplanin], the Bliss interaction score with S. aureus DSM 20231 [1] (main component drawn) is 0.0399; in the test with S. aureus Newman [2] (main component drawn) it was 0.054; with B. subtilis 168 (main component drawn) it was 0.0976; in the test with S. pneumoniae D39V (main component drawn), -0.0849.
As to `O=C(N[C@H](CO)[C@H](O)c1ccc([N+](=O)[O-])cc1)C(Cl)Cl` [Chloramphenicol] + CC[C@H]1OC(=O)[C@H](C)C(=O)[C@H](C)[C@@H](O[C@@H]2O[C@H](C)C[C@H](N(C)C)[C@H]2O)[C@](C)(OC)C[C@@H](C)C(=O)[C@H](C)[C@H]2N(CCCCn3cnc(-c4cccnc4)c3)C(=O)O[C@]12C [Telithromycin], the Bliss interaction score in the test with S. aureus DSM 20231 [1] is -0.104; with S. aureus Newman [2], -0.0946; with B. subtilis 168, -0.0575; in the test with S. pneumoniae D39V, -0.0437.
`CC(=O)OC[C@H]1O[C@@H]([S-])[C@H](OC(C)=O)[C@@H](OC(C)=O)[C@@H]1OC(C)=O.CCP(CC)CC.[Au+]` [Auranofin] + CCCCCCCCCC(=O)N[C@@H]1[C@H]([C@@H]([C@H](O[C@H]1OC2=C3C=C4C=C2OC5=C(C=C(C=C5)[C@H]([C@H]6C(=O)N[C@@H](C7=C(C(=CC(=C7)O)OC8[C@H]([C@H]([C@@H]([C@H](O8)CO)O)O)O)C9=C(C=CC(=C9)[C@H](C(=O)N6)NC(=O)[C@@H]4NC(=O)[C@@H]1C2=CC(=CC(=C2)OC2=C(C=CC(=C2)[C@H](C(=O)N[C@H](CC2=CC(=C(O3)C=C2)Cl)C(=O)N1)N)O)O)O)C(=O)O)O[C@H]1[C@@H]([C@H]([C@@H]([C@H](O1)CO)O)O)NC(=O)C)Cl)CO)O)O [Teicoplanin]: the Bliss interaction score was 0.0469 in the test on S. aureus DSM 20231 [1] (main component drawn), 0.0303 in the test with S. aureus Newman [2] (main component drawn), -0.0433 in the test with B. subtilis 168 (main component drawn) and 0.0761 in the test on S. pneumoniae D39V (main component drawn).
Take `CC(=O)OC[C@H]1O[C@@H]([S-])[C@H](OC(C)=O)[C@@H](OC(C)=O)[C@@H]1OC(C)=O.CCP(CC)CC.[Au+]` [Auranofin] + C[C@H]1c2cccc(O)c2C(=O)C2=C(O)[C@]3(O)C(=O)C(C(N)=O)=C(O)[C@@H](N(C)C)[C@@H]3[C@@H](O)[C@@H]21 [Doxycycline]: the Bliss interaction score with S. aureus DSM 20231 [1] was -0.0178; with S. aureus Newman [2] it was 0.0622; with B. subtilis 168 it was 0.0704; with S. pneumoniae D39V, 0.052.
For `O=C(O[C@@H]1Cc2c(O)cc(O)cc2O[C@@H]1c1cc(O)c(O)c(O)c1)c1cc(O)c(O)c(O)c1` [EGCG] + CC1(C)S[C@@H]2[C@H](NC(=O)Cc3ccccc3)C(=O)N2[C@H]1C(=O)O [PenicillinG], the Bliss interaction score in the test with S. aureus DSM 20231 [1] was 0.059; in the test on S. aureus Newman [2], 0.0531; in the test with B. subtilis 168, 0.0517; with S. pneumoniae D39V it was 0.108.
On to `O=C(N[C@H](CO)[C@H](O)c1ccc([N+](=O)[O-])cc1)C(Cl)Cl` [Chloramphenicol] + CN(C)C(=O)C(CCN1CCC(O)(c2ccc(Cl)cc2)CC1)(c1ccccc1)c1ccccc1 [Loperamide], for which the Bliss interaction score with S. aureus Newman [2] is -0.0555; in the test on B. subtilis 168 it was -0.18; in the test on S. pneumoniae D39V it was 0.146.
As for `O=C(N[C@H](CO)[C@H](O)c1ccc([N+](=O)[O-])cc1)C(Cl)Cl` [Chloramphenicol] + Cc1ncc([N+](=O)[O-])n1CCO [Metronidazole], the fitness in the test with S. aureus DSM 20231 [3] (setting [5]) worked out at 0.775; with S. aureus DSM 20231 [3] (setting [6]) it was 0.736; with S. aureus DSM 20231 [3] (setting [7]), 0.755; in the test with S. aureus Newman [4] (setting [5]) it was 0.796; in the test on S. aureus Newman [4] (first compound 0.75 µg/mL, partner 0.781 µg/mL), 0.789; in the test with S. aureus Newman [4] (setting [6]), 0.819. The fitness in the test on S. aureus Newman [4] (first compound 0.75 µg/mL, partner 1.562 µg/mL) was found to be 0.768; with S. aureus Newman [4] (setting [7]), 0.853; with S. aureus Newman [4] (first compound 0.75 µg/mL, partner 3.124 µg/mL), 0.752; in the test on S. aureus Newman [4] (setting [8]), 0.555; with S. aureus Newman [4] (first compound 1.5 µg/mL, partner 0.781 µg/mL), 0.539; with S. aureus Newman [4] (setting [9]) it was 0.573. The fitness turned out to be 0.527 in the test on S. aureus Newman [4] (first compound 1.5 µg/mL, partner 1.562 µg/mL); 0.564 in the test with S. aureus Newman [4] (setting [10]); 0.521 in the test with S. aureus Newman [4] (first compound 1.5 µg/mL, partner 3.124 µg/mL); 0.159 in the test with S. aureus Newman [4] (setting [11]); 0.167 with S. aureus Newman [4] (setting [12]); 0.172 in the test on S. aureus Newman [4] (first compound 3 µg/mL, partner 1.562 µg/mL). In the test on S. aureus Newman [4] (first compound 3 µg/mL, partner 3.124 µg/mL), this molecule yielded a fitness of 0.231. Further, the values for the Bliss interaction score in the test with S. aureus Newman [2], with B. subtilis 168 and with S. pneumoniae D39V were -0.07, 0.0423 and 0.0867, respectively.
In the case of `O=C(N[C@H](CO)[C@H](O)c1ccc([N+](=O)[O-])cc1)C(Cl)Cl` [Chloramphenicol] + COc1cccc2c1C(=O)c1c(O)c3c(c(O)c1C2=O)C[C@@](O)(C(=O)CO)C[C@@H]3O[C@H]1C[C@H](N)[C@H](O)[C@H](C)O1 [Doxorubicin], the fitness amounted to 0.646 in the test on S. aureus DSM 20231 [3] (setting [5]); 0.698 in the test on S. aureus DSM 20231 [3] (setting [6]); 0.663 in the test on S. aureus DSM 20231 [3] (setting [7]); 0.572 with S. aureus DSM 20231 [3] (setting [8]); 0.569 with S. aureus DSM 20231 [3] (setting [9]); 0.525 in the test on S. aureus DSM 20231 [3] (setting [10]). Moreover, the fitness with S. aureus DSM 20231 [3] (setting [11]) stood at 0.118; with S. aureus DSM 20231 [3] (setting [12]), 0.121; with S. aureus Newman [4] (setting [5]), 0.676; in the test on S. aureus Newman [4] (setting [6]), 0.72; with S. aureus Newman [4] (setting [7]), 0.685; with S. aureus Newman [4] (setting [8]) it was 0.564. In addition, the fitness with S. aureus Newman [4] (setting [9]) was found to be 0.562; with S. aureus Newman [4] (setting [10]) it was 0.579; with S. aureus Newman [4] (setting [11]), 0.326; in the test on S. aureus Newman [4] (setting [12]), 0.291. Moreover, the Bliss interaction score with S. aureus Newman [2] is 0.132; in the test with B. subtilis 168, -0.0604; in the test with S. pneumoniae D39V, -0.127.
